Results published in the NIST ThermoML archive (doi:10.1016/j.jct.2018.07.017).
Numbers after ± are expanded uncertainties.

Assays:
[1] = for vapor or sublimation pressure: Transpiration method
[2] = Molar enthalpy of transition or fusion; conditions: Crystal; DSC

CC(C)(O)C(=O)O [2-hydroxy-2-methylpropanoic acid]
Conditions	mass density [kg/m3]
[1], 293 K, 101.33 kPa, Crystal, Pycnometric method	1240 ± 400

[1]
Conditions	Normal melting temperature [°C]	vapor or sublimation pressure [kPa]
313.3 K, Crystal	–	0.005081 ± 0.00037
318.2 K, Crystal	–	0.008221 ± 0.00057
323.2 K, Crystal	–	0.01418 ± 0.00095
328.1 K, Crystal	–	0.02187 ± 0.0014
333.1 K, Crystal	–	0.03606 ± 0.0024
338.1 K, Crystal	–	0.05555 ± 0.0036
343.1 K, Crystal	–	0.08884 ± 0.0057
347.8 K, Crystal	–	0.139 ± 0.0088
356 K, Liquid	–	0.2724 ± 0.017
359.8 K, Liquid	–	0.3463 ± 0.022
363.7 K, Liquid	–	0.4479 ± 0.028
367.7 K, Liquid	–	0.5693 ± 0.035
369.3 K, Liquid	–	0.6241 ± 0.039
371.7 K, Liquid	–	0.7211 ± 0.045
373 K, Liquid	–	0.7664 ± 0.048
375.6 K, Liquid	–	0.8814 ± 0.055
377.1 K, Liquid	–	0.9824 ± 0.061
379.5 K, Liquid	–	1.093 ± 0.068
379.6 K, Liquid	–	1.097 ± 0.068
Crystal, DTA	75 ± 1.1	–

Conditions	Molar enthalpy of transition or fusion [kcal/mol]
[2]	4.21 ± 0.143
